This is an account of results in patent US7476741B2, “Substituted 4H-chromens, 2H-chromenes, chromans and analogs as activators of caspases and inducers of apoptosis and the use thereof” (Cytovia, Inc., priority 2002, dated 2009).

One assay deals with T-47D. Briefly: Caspase cascade activation assay (N-(Ac-DEVD)-N'-ethoxycarbonyl-R110 fluorogenic substrate) in T-47D cells. The format is cell-based. As to conditions: T-47D human breast cancer cells, 24 h incubation; ratio of net RFU of compound to control. The protocol:
(§1) Human breast cancer cell lines T-47D and ZR-75-1 were grown according to media component mixtures designated by American Type Culture Collection +10% FCS (Invitrogen Corporation), in a 5% CO2−95% humidity incubator at 37° C. T-47D and ZR-75-1 cells were maintained at a cell density between 30 and 80% confluency at a cell density of 0.1 to 0.6×10^6 cells/mL. Cells were harvested at 600×g and resuspended at 0.65×10^6 cells/mL into appropriate media +10% FCS. An aliquot of 45 μL of cells was added to a well of a 96-well microtiter plate containing 5 μL of a 10% DMSO in RPMI-1640 media solution containing 0.16 to 10 μM of 4-(3-bromo-4,5-dimethoxyphenyl)-3-cyano-4H-indolo[4,5-b]pyran (Example 1) or other test compound (0.016 to 1 μM final). An aliquot of 45 μL of cells was added to a well of a 96-well microtiter plate containing 5 μL of a 10% DMSO in RPMI-1640 media solution without test compound as the control sample. The samples were mixed by agitation and then incubated at 37° C. for 24 h in a 5% CO2-95% humidity incubator. After incubation, the samples were removed from the incubator and 50 μL of a solution containing 20 μM of N-(Ac-DEVD)-N′-ethoxycarbonyl-R110 (SEQ ID No.:1) fluorogenic substrate (Cytovia, Inc.; U.S. Pat. No. 6,335,429), 20% sucrose (Sigma), 20 mM DTT (Sigma), 200 mM NaCl (Sigma), 40 mM Na PIPES buffer pH 7.2 (Sigma), and 500 μg/mL lysolecithin (Calbiochem) was added. The samples were mixed by agitation and incubated at room temperature. Using a fluorescent plate reader (Model 1420 Wallac Instruments), an initial reading (T=0) was made approximately 1-2 min after addition of the substrate solution, employing excitation at 485 nm and emission at 530 nm, to determine the background fluorescence of the control sample. After the 3 h incubation, the samples were read for fluorescence as above (T=3 h).
(§2) The Relative Fluorescence Unit values (RFU) were used to calculate the sample readings as follows: RFU(T=3h)−Control RFU(T=0)=Net RFU(T=3h)
(§3) The activity of caspase cascade activation was determined by the ratio of the net RFU value for 4-(3-bromo-4,5-dimethoxyphenyl)-3-cyano-4H-indolo[4,5-b]pyran or other test compound to that of control samples. The EC50 (nM) was determined by a sigmoidal dose-response calculation (Prism 2.0, GraphPad Software Inc.).

For another assay, the system named is ZR-75-1. Description: Caspase cascade activation assay (N-(Ac-DEVD)-N'-ethoxycarbonyl-R110 fluorogenic substrate) in ZR-75-1 cells. Type of assay: cell-based. As to conditions: ZR-75-1 human breast cancer cells, 24 h incubation; sigmoidal dose-response; read-out: ZR-75-1 EC50 (nM) (potency). As to the method: as §1, §2, §3

Regarding `COc1cc(C2CC(O)Oc3cc(NC(C)=O)ccc32)cc(Br)c1OC` (stereo not drawn) [Example 27, N-[4-(3-Bromo-4,5-dimethoxyphenyl)-2-hydroxy-chroman-7-yl]-acetamide], in the assay with T-47D, the “T-47D Ratio (caspase activity)” value is recorded as 1.3. Besides, the EC50 (commonly the concentration that produces a half-maximal response) in the assay on ZR-75-1 turned out to be 548 nM.

For the compound `COc1cc(C2CC(O)Oc3c2ccc2cccnc32)cc(Br)c1OC` (stereo not drawn) [Example 28, 4-(3-Bromo-4,5-dimethoxyphenyl)-2-hydroxy-pyrido[3,2-h]chroman], in the assay on T-47D, the “T-47D Ratio (caspase activity)” value amounted to 6.5. The concentration for a half-maximal effect (EC50) with ZR-75-1 came out at 344 nM.

As for `COc1cc(C2CC(O)Oc3c2ccc2[nH]c(=O)[nH]c32)cc(Br)c1OC` (stereo not drawn) [Example 29, 4-(3-Bromo-4,5-dimethoxyphenyl)-7,9-dihydro-2-hydroxy-8-oxo-imidazolo[4,5-h]chroman], the “T-47D Ratio (caspase activity)” value with T-47D came out at 6.0. In addition, the EC50 in the assay on ZR-75-1 came to 360 nM.

Regarding `COc1cc(C2CC(O)Oc3c2ccc2cc[nH]c32)cc(Br)c1OC` (stereo not drawn) [Example 30, 4-(3-Bromo-4,5-dimethoxyphenyl)-2-hydroxy-pyrrolo[3,2-h]chroman], the “T-47D Ratio (caspase activity)” value with T-47D is 6.8. Moreover, the EC50 in the assay with ZR-75-1 was found to be 379 nM.

Take `COc1ccc2c(c1)OC(=O)CC2c1cc(OC)c(OC)c(OC)c1` (stereo not drawn) [Example 31, 7-Methoxy-4-(3,4,5-trimethoxyphenyl)-chroman-2-one]: the “T-47D Ratio (caspase activity)” value in the assay on T-47D stood at 1.3. In the assay on ZR-75-1, the EC50 worked out at 573 nM.

Turning to `COc1ccc(C2CC(=O)Oc3c2cc(OC)c(OC)c3OC)cc1O` (stereo not drawn) [Example 32, 4-(3-Hydroxy-4-methoxyphenyl)-6,7,8-trimethoxy-chroman-2-one], the “T-47D Ratio (caspase activity)” value with T-47D turned out to be 4.4. Moreover, the EC50 with ZR-75-1 stood at 3080 nM.
